Assay [1] has as its system Shigella sonnei IID 969. Put plainly: In vitro antibacterial activity, MIC (standard strain). The assay is classed as cell-based. The following applies: IID969, 10^6 cells/ml. As to the method:
Experiment-1 In vitro antibacterial activity
The in vitro antibacterial activity against gram-positive and gram-negative bacteria has been investivated.
The minimum inhibitory concentration (MIC) was determined in accordance with the method recommended by Japan Society of Chemotherapy.

The test system of assay [2] is Salmonella entritidis IID 604. The description is as above. In kind it is cell-based. The following applies: Salmonella, IID604.
For assay [3], the system named is K. pneumoniae 1-220S. The assay is described as above. In kind it is cell-based. The following applies: Klebsiella pneumoniae, 1220S.
The test system of assay [4] is Yersinia enterocolitica IID 981. The assay is described as above. In kind it is cell-based. The note with it: Yersinia enterocolitica, IID981.
In assay [5] the test system is E. coli ML 4707. Described as above. In kind it is cell-based. The following applies: Escherichia coli, ML4707.
Assay [6] has as its system E. coli ML4707. Briefly: In vivo antibacterial activity against systemic infection in mice. The following applies: Escherichia coli, read-out: ED50 E. coli ML4707. Set-up: species or system mice (ICR-S). The protocol:
(§1) Experiment-2 In vivo antibacterial activity against systemic infection in mice (ICR-S)
(§2) The infections were produced by intraperitoneal injection of a suspension of the bacterial culture corresponding to the germ studied. The products were administered orally at an hour after the infection.

For assay [7], the system named is S. aureus Smith. The assay is described as above. The note with it: Staphylococcus aureus, po. More on the design: species or system mice (ICR-S). The protocol: as §1, §2
In assay [8] the test system is S. pneumoniae S-4288. The description is as above. More on the design: species or system mice (ICR-S). The note with it: Streptococcus pneumoniae, read-out: ED50 S. pneumoniae S-4288. As to the method:
as §1, §2

The test system of assay [9] is Serratia marcescens IID 618. Put plainly: In vitro antibacterial activity, MIC (standard strain). The assay is classed as cell-based.
The test system of assay [10] is Proteus vulgaris IFO 3167. Described as above. The assay is classed as cell-based. The following applies: Proteus vulgaris, IFO3167.
For assay [11], the system named is S. epidermidis IID 866. Described as above. The assay is classed as cell-based.
The test system of assay [12] is E. coli ATCC 10536. Described as above. In kind it is cell-based. The note with it: Escherichia coli, ATCC10536.
The test system of assay [13] is C. difficile I-E. The description is as above. The assay is classed as cell-based. The note with it: Clostridioides difficile.
Assay [14] has as its system P. mirabilis IID 994. Described as above. In kind it is cell-based. The following applies: Proteus mirabilis, IID994.
Assay [15] deals with Morganella morganii IID 602. The description is as above. In kind it is cell-based. The following applies: IID602; Morganella morganii IID 602; 10^6 cells/ml; standard strain; read-out: MIC.
Assay [16] deals with Escherichia coli NIHJ JC-2. Described as above. The assay is classed as cell-based.
Assay [17] concerns Bacillus subtilis PCI 219. The assay is described as above. The assay is classed as cell-based. The note with it: Bacillus subtilis, PCI219.
Assay [18] concerns Staphylococcus aureus 209 P. The description is as above. The assay is classed as cell-based. The note with it: Staphylococcus aureus, 209P.
Assay [19] deals with Citrobacter freundii IID 976. Described as above. The assay is classed as cell-based. The following applies: Citrobacter freundii, IID976.
Assay [20] deals with Klebsiella pneumoniae KY(GN)6445. The description is as above. The note with it: Klebsiella pneumoniae. The assay is classed as cell-based.
For assay [21], the system named is S. aureus IID 670 (Terajima). The description is as above. In kind it is cell-based, Staphylococcus aureus.
In assay [22] the test system is Fusobacterium varium KYA 8501. Described as above. In kind it is cell-based.
The subject of assay [23] is S. aureus Smith. Described as above. The following applies: Staphylococcus aureus, MIC column of Table 3-1, beside ED50 against S. aureus Smith. The assay is classed as cell-based, Staphylococcus aureus.
In assay [24] the test system is M. pneumoniae Mac. Briefly: In vitro antibacterial activity against Mycoplasma, MIC. In kind it is cell-based. The note with it: Mycoplasmoides pneumoniae, 120 h. The source says:
Experiment-3 In vitro antibacterial activity against Mycoplasma

For assay [25], the system named is P. aeruginosa IFO 12689. Put plainly: In vitro antibacterial activity, MIC (standard strain). In kind it is cell-based, Pseudomonas aeruginosa. The note with it: P. aeruginosa IFO 12689; 10^6 cells/ml; standard strain.
The subject of assay [26] is B. fragilis 0558. The assay is described as above. The assay is classed as cell-based, Bacteroides fragilis. The note with it: B. fragilis 0558; 10^6 cells/ml; standard strain; listed as Exp.4.
Assay [27] concerns Acinetobacter anitratus IID 876. The description is as above. In kind it is cell-based. The note with it: Acinetobacter anitratus IID 876; 10^6 cells/ml; standard strain; listed as Exp.4.
Assay [28] has as its system Alcaligenes faecalis 0104002. Described as above. In kind it is cell-based. The note with it: Alcaligenes faecalis 0104002; 10^6 cells/ml; standard strain; listed as Exp.4.
For assay [29], the system named is Enterobacter cloacae IID 977. Described as above. The assay is classed as cell-based. The note with it: Enterobacter cloacae IID 977; 10^6 cells/ml; standard strain; listed as Exp.4.
For assay [30], the system named is B. fragilis 25285. The description is as above. The assay is classed as cell-based, Bacteroides fragilis. The note with it: B. fragilis 25285; 10^6 cells/ml; standard strain; listed as Exp.4.

In brackets after ≈: the same amount, converted by molar mass. Read-outs that look alike come from different tables or passages of the source.

The source of these data is patent EP0183129A1, “Quinolonecarboxylic acid derivatives” (KYORIN PHARMACEUTICAL CO., LTD., priority 1984, dated 1986).

Consider `O=C(O)c1cn(C2CC2)c2cc(N3CCNCC3)c(F)cc2c1=O` [CFLX, Ciprofloxacin, reference compound], for which the MIC in assay [1] was found to be 0.0125 µg/mL (≈ 0.0377 µM); in assay [2], 0.05 µg/mL (≈ 0.151 µM); in assay [3], 0.05 µg/mL (≈ 0.151 µM); in assay [4], 0.05 µg/mL (≈ 0.151 µM); in assay [5], 0.0125 µg/mL (≈ 0.0377 µM); in assay [9] (Serratia marcescens, IID618), 0.05 µg/mL (≈ 0.151 µM). Further, the MIC in assay [10] was found to be 0.0125 µg/mL (≈ 0.0377 µM); in [11] (Staphylococcus epidermidis, IID866) it was 0.2 µg/mL (≈ 0.604 µM); in assay [12] it was 0.025 µg/mL (≈ 0.0754 µM); in assay [13], 12.5 µg/mL (≈ 37.7 µM); in [14], 0.025 µg/mL (≈ 0.0754 µM); in assay [15], 0.05 µg/mL (≈ 0.151 µM). Besides, the minimum inhibitory concentration (MIC) in assay [16] (Escherichia coli, NIHJJC2) is 0.0125 µg/mL (≈ 0.0377 µM); in assay [17], 0.05 µg/mL (≈ 0.151 µM); in [18] it was 0.2 µg/mL (≈ 0.604 µM); in assay [19], 0.025 µg/mL (≈ 0.0754 µM); in [20], 0.025 µg/mL (≈ 0.0754 µM); in [21] (Staphylococcus aureus, IID670), 0.2 µg/mL (≈ 0.604 µM). Besides, the minimum inhibitory concentration (MIC) in assay [22] (Fusobacterium varium, KYA8501) is 12.5 µg/mL (≈ 37.7 µM); in assay [23], 0.2 µg/mL (≈ 0.604 µM). For the same compound, the ED50 in assay [6] (ML4707, po) is 1.8 mg/kg; in assay [7] (read-out: ED50 S. aureus Smith, mice (ICR-S), an hour after intraperitoneal infection, challenge dose 6.0 x 10^5 cfu/mouse), above 25 mg/kg; in assay [7] (read-out: ED50 against S. aureus Smith, mice (ICR-S), an hour after intraperitoneal infection, challenge dose 5.5 x 10^5 cfu/mouse, n=5) it was 25.5 mg/kg; in [7] (read-out: ED50 against S. aureus Smith, mice (ICR-S), an hour after intraperitoneal infection, challenge dose 7 x 10^5 cfu/mouse, n=5), 12.3 mg/kg; in assay [8] (S4288, po) it was above 100 mg/kg.
Consider `NCC1CCN(c2c(F)cc3c(=O)c(C(=O)O)cn(C4CC4)c3c2F)C1` (stereo not drawn) [Example 4, 7-(3-Aminomethyl-1-pyrrolidinyl)-1-cyclopropyl-6,8-difluoro-1,4-dihydro-4-oxo-3-quinolinecarboxylic acid], for which the minimal inhibitory concentration (MIC) worked out at 0.025 µg/mL (≈ 0.0688 µM) in assay [24] (M. pneumoniae Mac., no visible growth after incubation for 5 days, read-out: MIC); 0.39 µg/mL (≈ 1.07 µM) in [25]; 0.10 µg/mL (≈ 0.275 µM) in [9] (Serratia marcescens IID 618, 10^6 cells/ml, standard strain, listed as Exp.4); 0.025 µg/mL (≈ 0.0688 µM) in [11] (S. epidermidis IID 866, 10^6 cells/ml, standard strain, listed as Exp.4); 0.78 µg/mL (≈ 2.15 µM) in assay [26]; 0.05 µg/mL (≈ 0.138 µM) in assay [27]. The MIC in assay [16] (Escherichia coli NIHJ JC-2, 10^6 cells/ml, standard strain, listed as Exp.4) was determined as 0.0125 µg/mL (≈ 0.0344 µM); in [28], 0.78 µg/mL (≈ 2.15 µM); in assay [21] (S. aureus IID 670 (Terajima), 10^6 cells/ml, standard strain, listed as Exp.4), 0.025 µg/mL (≈ 0.0688 µM); in [29], 0.05 µg/mL (≈ 0.138 µM); in [22] (Fusobacterium varium KYA 8501, 10^6 cells/ml, standard strain, listed as Exp.4), 1.56 µg/mL (≈ 4.29 µM); in assay [30], 0.78 µg/mL (≈ 2.15 µM). Moreover, the ED50 in [6] (ML4707, mice (ICR-S), oral, an hour after intraperitoneal infection, challenge dose 2.7 x 10^6 ~ 8.8 x 10^6 cfu/mouse) came out at 3 mg/kg; in assay [7] (mice (ICR-S), an hour after intraperitoneal infection, challenge dose 5.5 x 10^5 cfu/mouse, n=5, read-out: ED50 against S. aureus Smith) it was 1.57 mg/kg; in assay [7] (mice (ICR-S), an hour after intraperitoneal infection, challenge dose 6.0 x 10^5 cfu/mouse, read-out: ED50 S. aureus Smith), 1.8 mg/kg; in assay [8] (S4288, mice (ICR-S), oral, an hour after intraperitoneal infection, challenge dose 7.5 x 10^4 ~ 4.8 x 10^6 cfu/mouse), 13.8 mg/kg.
Consider `CN(C)[C@@H]1C(O)=C(C(N)=O)C(=O)[C@@]2(O)C(O)=C3C(=O)c4c(O)cccc4[C@@](C)(O)[C@H]3C[C@@H]12` [TC, Tetracycline, reference compound], for which the MIC in assay [24] is 0.78 µg/mL (≈ 1.76 µM).
